Source: US10653653B2, “Salts of 5-aminolevulinic acid and derivatives” (priority 2016, dated 2020)

Columns and labels:
[1] = test system: upper surface of the tongue; assay: Measurement of potential skin irritation/stimulation on tongue surface; format: in vivo; design: key: A: no irritation; B: irritation; C: strong irritation; D: very strong irritation; details: 3 mg on upper surface of the tongue for 3-5 minutes
Procedure: The potential irritation/stimulation of test samples was carried out by applying 3 mg of each sample to the upper surface of the tongue for 3-5 minutes and then evaluated.

[2] = test system: A549 cells; assay: Measurement of PpIX formation in A549 cells in vitro; format: cell-based, human
Procedure: Test samples were dissolved with sterile saline to a concentration of 100 mM as stock solution. The stock solution was diluted to desired concentrations with culture medium or phosphate buffered solution (PBS).
A549 cells (ATCC), derived from human lung carcinoma, were grown in F12 medium (Gibco) containing 4.5 g/L glucose, 10% FCS, and penicillin/streptomycin, at 37° C. and 6% CO2 in a humid environment. For measurement purposes, the cells were sub-cultured in 48-well or 96-well dishes to give 5×10^4 cells/well 24 hours prior to incubation with test salts. The cells were washed twice with PBS and test solutions were added to the culture. After cells were incubated for 4, 8 or 24 hours, the medium was detached and the plates were rinsed twice with PBS, and PpIX natural fluorescence was measured at 360±40 nm excitation and 620±40 nm emission (CytoFluor Series 4000, Perspective Biosystems, MA, USA). The experiment was conducted in triplets.

[3] = Measurement of hydroscopicity (weight change method); format: physicochemical; details: sealed container, moisture of 70-85%, ambient temperature, 24 hours
Procedure: Hydroscopicity of salts from present disclosure was measured using a weight change method. The test samples were placed in a sealed container with moisture of 70-85% at ambient temperature for 24 hours and their weigh change was measured. All three hydrochloride salts of 5-ALA, 5-MAL and 5-HAL, and 5-ALA TCA were hygroscopic, their weight was increased by 25˜75%.

Row | Compound | irritation/stimulation on tongue surface ([1]; participant 1) | irritation/stimulation on tongue surface ([1]; participant 2) | irritation/stimulation on tongue surface ([1]; participant 3) | irritation/stimulation on tongue surface ([1]; participant 4) | Activity (relative activity to induce porphyrin formation) ([2]; 10 mM, 4 hrs) | Activity (relative activity to induce porphyrin formation) ([2]; 10 mM, 8 hrs) | Activity (relative activity to induce porphyrin formation) ([2]; 10 mM, 24 hrs) | appearance of sample after moisture exposure [3] | Activity (relative activity to induce porphyrin formation) ([2]; 0.5 mM, 4 hrs) | Activity (relative activity to induce porphyrin formation) ([2]; 0.5 mM, 8 hrs) | Activity (relative activity to induce porphyrin formation) ([2]; 0.5 mM, 24 hrs) | Activity (relative activity to induce porphyrin formation) ([2]; 1 mM, 4 hrs) | Activity (relative activity to induce porphyrin formation) ([2]; 1 mM, 8 hrs) | Activity (relative activity to induce porphyrin formation) ([2]; 1 mM, 24 hrs) | weight change (weight increase) [3]
1 | 5-Aminolevulinic Acid 2,2,2-Trichloroacetate [5-ALA TCA] | B | B | B | B | 1.00 ± 0.02 | 1.30 ± 0.06 | 2.50 ± 0.17 | turned to a liquid due to deliquescence |  |  |  |  |  |  | 
2 | Cl.NCC(=O)CCC(=O)O [5-ALA HCl, 5-aminolevulinic acid hydrochloride, reference compound] | D | C | D | C | 1.00 | 1.42 ± 0.04 | 2.35 ± 0.19 | turned to a liquid due to deliquescence |  |  |  |  |  |  | 
3 | CCCCCCOC(=O)CCC(=O)CN.Cl [5-HAL HCl, Hexyl 5-aminolevulinate hydrochloride, reference compound] | B | C | C | B |  |  |  | turned to a liquid due to deliquescence | 1.20 ± 0.15 | 1.57 ± 0.08 | 2.92 ± 0.30 | ~2 | ~4 | ~10 | 
4 | COC(=O)CCC(=O)CN.Cl [5-MAL HCl, methyl 5-aminolevulinate hydrochloride, reference compound] | C | C | C | C | 1.27 ± 0.04 | 1.60 ± 0.12 | 2.22 ± 0.16 | turned to a liquid due to deliquescence |  |  |  |  |  |  | 
5 | Hexyl 5-Aminolevulinate 2,2,2-Trichloroacetate [5-HAL TCA] | B | B | A | B |  |  |  | unchanged as crystalline solid | 1.15 ± 0.05 | 1.57 ± 0.11 | 2.72 ± 0.10 | ~2 | ~4 | ~10 | remained unchanged
6 | Methyl 5-Aminolevulinate 2,2,2-Trichloroacetate [5-MAL TCA] | B | B | B | B | 1.20 ± 0.04 | 1.25 ± 0.02 | 2.20 ± 0.16 | unchanged as crystalline solid |  |  |  |  |  |  | < 5%
